Results as given in patent US6153592A, “Enhancing the bioavailability of proteolytically labile therapeutic agents” (Port Systems, LLC, priority 1994, dated 2000).

Tests used:
[1] = in vivo, cited from earlier work
[2] = system: intestinal aminopeptidases; experiment: Protection against degradation by aminopeptidase in vivo: YdAGFdL bioavailability after ileal dosing; parameters: species or system rats
Procedure: The pentapeptide enkephalin analogue D-AJa-D-Leu-enkephalin (YdAGFdL) (1.0 mg) was directly ileally dosed to chronically ileally fistulated rats. Radiolabeled YdAGFdL (1.12 microgram) was dosed with each of four protecting agents: (1) decanted soy flour, <1K MW; (2) decanted and ultrafitered soy flour, 1K-30K MW; (3) pepsin-treated (FMC ACTI-MOD) soy flour, <30K MW; (4) the potent aminopeptidase inhibitor amastatin (positive control). Blood was collected from a jugular vein cannula at various times post-dosing, and intact YdAGFdL was quantified by a radiometric thin layer chromatography (TLC) method utilizing reverse phase KC-18 TLC plates (Whatman Co.). The TLC plates were developed with 30:701 -propanol/0.1 M phosphate buffer (pH 4.1).

% YdAGFdL Bioavailability ([2]; protecting agent 1 mg, ileally fistulated rats) [%]	protection against degradation of YdAGFdL by intestinal aminopeptidases (in words) ([2]; rats)	SMILES	bioavailability following oral administration ([1]; po) [%]	bioavailability following vaginal administration [1] [%]
–	–	CCNC(=O)[C@@H]1CCCN1C(=O)[C@H](CCCNC(=N)N)NC(=O)[C@H](CC(C)C)NC(=O)[C@@H](CC(C)C)NC(=O)[C@H](Cc1ccc(O)cc1)NC(=O)[C@H](CO)NC(=O)[C@H](Cc1c[nH]c2ccccc12)NC(=O)[C@H](Cc1c[nH]cn1)NC(=O)[C@@H]1CCC(=O)N1 [leuprolide]	0.05	38
8.76 ± 4.47	effective	CC(C)C[C@@H](N)[C@H](O)C(=O)N[C@H](C(=O)N[C@H](C(=O)N[C@@H](CC(=O)O)C(=O)O)C(C)C)C(C)C [Amastatin]	–	–
